Experimental data: US20100093706A1, “MULTIMEDIATOR TRANSPORTER INHIBITORS FOR USE IN TREATMENT OF CENTRAL NERVOUS SYSTEM DISORDERS” (priority 2006, published 2010)

Legend:
M1 receptor = target: T1, M1 receptor (Homo sapiens, UniProt P11229); assay: in vitro selectivity panel, M1 receptor; format: binding
T1 sequence (P11229 1-460): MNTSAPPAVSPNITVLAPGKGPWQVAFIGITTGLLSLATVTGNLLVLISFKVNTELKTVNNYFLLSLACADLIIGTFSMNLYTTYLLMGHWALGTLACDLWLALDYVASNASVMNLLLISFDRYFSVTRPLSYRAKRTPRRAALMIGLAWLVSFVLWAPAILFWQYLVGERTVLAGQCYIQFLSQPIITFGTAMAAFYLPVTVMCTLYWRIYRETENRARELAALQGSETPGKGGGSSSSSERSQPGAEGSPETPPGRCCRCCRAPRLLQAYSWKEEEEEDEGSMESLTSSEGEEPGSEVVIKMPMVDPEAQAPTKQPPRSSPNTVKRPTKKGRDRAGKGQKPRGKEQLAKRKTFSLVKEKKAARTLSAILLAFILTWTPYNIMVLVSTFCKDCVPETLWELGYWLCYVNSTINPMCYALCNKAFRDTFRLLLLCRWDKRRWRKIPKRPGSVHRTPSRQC
Method: The in vitro selectivity profile of two representative subject compounds, (3) and (1), are also tested against a panel of other receptors, including the M1 receptor, Histamine H1 receptor, sigma-1 (σ1) receptor, β1-adrenergic receptor, and dopamine D2 receptor. Representative results are listed below in Table III: […]

DAT (SLC6A3) = target: T2, DAT (SLC6A3) (Homo sapiens, UniProt Q01959); assay: in vitro inhibition profile, IC50 of DAT (uptake assay); format: cell-based
T2 construct: expressed in transfected cells
T2 sequence (Q01959 whole entry): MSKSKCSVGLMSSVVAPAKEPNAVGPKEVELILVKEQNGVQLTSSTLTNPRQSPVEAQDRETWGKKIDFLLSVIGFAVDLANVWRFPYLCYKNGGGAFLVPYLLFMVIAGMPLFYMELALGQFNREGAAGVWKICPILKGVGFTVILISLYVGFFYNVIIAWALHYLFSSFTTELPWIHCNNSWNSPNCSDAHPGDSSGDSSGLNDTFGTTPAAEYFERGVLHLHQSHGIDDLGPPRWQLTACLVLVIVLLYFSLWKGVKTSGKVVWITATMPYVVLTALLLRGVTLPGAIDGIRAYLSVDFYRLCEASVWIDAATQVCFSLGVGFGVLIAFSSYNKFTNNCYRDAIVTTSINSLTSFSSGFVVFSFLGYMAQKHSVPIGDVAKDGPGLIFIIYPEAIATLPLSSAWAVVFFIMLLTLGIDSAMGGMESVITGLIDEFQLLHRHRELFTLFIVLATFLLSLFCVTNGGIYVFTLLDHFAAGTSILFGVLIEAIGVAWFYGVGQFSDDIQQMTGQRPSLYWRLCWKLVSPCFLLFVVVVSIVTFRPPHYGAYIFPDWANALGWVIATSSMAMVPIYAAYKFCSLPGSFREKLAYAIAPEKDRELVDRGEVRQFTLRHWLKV
Method: Before the assay, cells expressing DAT are washed once with KRH and equilibrated for 5 min. The cells may be assayed in 24-well plates and incubated for 2-5 min. with tritiated amines. Nontransported inhibitors were preincubated for 5 min, and substrates were applied together with the tritiated substrate.
Experiments to determine the ionic requirements for DAT-mediated uptake are done in KRH buffer, substituting LiCl or choline Cl for NaCl (sodium-dependence) or substituting D-gluconates for NaCl and KCl, and Ca(NO3)2 for CaCl2 (chloride dependence). Cells are washed twice with sodium- or chloride-free KRH before the assay (each wash step at least 5 min). In all transport assays, incubation periods and substrate concentrations are chosen such that uptake obeyed first-order rate kinetics.
Vmax values for amine uptake in stable transfected DAT-cells are determined in parallel assays for at least two amines per experiment and expressed as relative values.

Sprague-Dawley rats = assay: 7 day multidose oral dosing toxicology study; format: in vivo, rat
Excerpt: The representative results are listed below in Table VI.

rat = assay: acute single-dose toxicology in rat; format: in vivo
Method: An in vivo evaluation was carried out to determine the maximum tolerated dose of numerous test compounds in rat. The compounds were administered i.v., and the animals were then observed for 72 hours.
Briefly, experimental rats, in groups of 5 animals, were administered with various doses of respective inhibitors (e.g. 30, 90, 120, and 200 mg/kg), and the observed toxicological effects were recorded.

[1] = target: NET (norepinephrine transporter or SLC6A2) (Homo sapiens, UniProt P23975); assay: cell-based; conditions: own compounds tested as racemic mixtures of enriched diastereomers
Sequence of NET (norepinephrine transporter or SLC6A2) (P23975 whole entry): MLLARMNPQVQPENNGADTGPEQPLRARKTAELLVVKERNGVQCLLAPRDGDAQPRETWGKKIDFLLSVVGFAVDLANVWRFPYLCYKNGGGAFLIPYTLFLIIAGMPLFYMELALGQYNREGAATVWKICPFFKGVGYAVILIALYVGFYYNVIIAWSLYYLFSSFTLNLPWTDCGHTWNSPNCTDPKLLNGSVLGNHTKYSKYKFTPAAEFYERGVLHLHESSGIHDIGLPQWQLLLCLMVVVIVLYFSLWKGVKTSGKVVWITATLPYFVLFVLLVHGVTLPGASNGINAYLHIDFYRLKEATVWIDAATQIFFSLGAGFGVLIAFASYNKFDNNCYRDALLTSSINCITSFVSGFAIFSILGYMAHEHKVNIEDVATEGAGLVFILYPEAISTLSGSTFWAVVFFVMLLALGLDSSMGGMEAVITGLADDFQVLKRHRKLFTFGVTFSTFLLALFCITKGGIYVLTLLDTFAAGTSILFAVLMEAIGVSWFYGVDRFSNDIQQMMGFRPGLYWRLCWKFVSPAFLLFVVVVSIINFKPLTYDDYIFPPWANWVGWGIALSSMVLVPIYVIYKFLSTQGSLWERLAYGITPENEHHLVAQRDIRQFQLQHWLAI

rats = assay: forced swim test (behavioral despair assay) in rats; format: in vivo; conditions: rat
Method: In vivo efficacy of several illustrative inhibitors of the instant invention, (1), (3), and (4), were measured using standard forced swim test model using rat. The objective of this study was to assess the antidepressant effects of test compounds in the behavioral despair assay in rats using a modification of a method described by Porsolt R. D. et al. in Behavioural despair in rats: a new model sensitive to antidepressant treatment, Eur. J. Pharmacol., 47: 379-391, 1978; Porsolt et al., Nature 266: 730-732, 1977; and Porsolt et al., in Psychopharmacology, Olivier, Mos, and Slangen (eds) Birkhäuser Verlag, Basel, pp. 137-159, 1991. Briefly, when mice (or rats) are forced to swim in a cylinder from which no escape is possible, they readily adopt a characteristic immobile posture and make no further attempts to escape except for small movements needed to keep floating. The immobility is considered by some to reflect a “depressive mood” (Porsolt et al., Nature 266: 730-732, 1977) in which animals cease to struggle to escape the aversive situation. The immobility induced by the procedure is influenced by a wide variety of antidepressants (Porsolt et al., in Psychopharmacology, Olivier, Mos, and Slangen (eds) Birkhauser Verlag, Basel, pp. 137-159, 1991) and has a good predictive validity in that it detects antidepressants with different mechanisms of action (TCAs, SSRIs, MAOIs, and other atypical ones). The test is sensitive to muscle-relaxant (benzodiazepines) and sedative (neuroleptics) effects, leading to enhanced immobility (Porsolt et al., supra).
In a typical experiment, animals are placed singly into a cylinder (e.g. 46×30 cm) containing fresh water at about 20° C. for 6 minutes. The activity (or immobility) of the animal is measured by an observer minute by minute. In more detail, the animals were preconditioned in a pretest session, where the rats were individually forced to swim inside a vertical plexiglass cylinder containing water maintained at 19-20° C. After 15 minutes in the water, they were allowed to dry for […] in a heated enclosure. Twenty-four hours later, the compounds were administered either intraperitoneally or orally to the animals. One hour after administration of the test compound, animals were put back into the cylinder containing water. The total duration of immobility was measured during the last 4 minutes of a 6 minute test.
The results are expressed as the percentage of variation of the total duration of immobility calculated from the mean value of the vehicle-treated group (% variation=[(immobility duration of vehicle−immobility duration of test compound)/(immobility duration of vehicle)]×100%).
In order to measure the in vivo efficacy of inhibiting DAT in rats using an inhibitor of the instant invention, one test inhibitor ((1), (3), or (4)) was injected i.p. as racemic mixtures of diastereomers into the animals, at various-doses (e.g. 7.5 and […]). Sibutramine (2.0 and 2.5 mg/kg), Bupropion (7.5 and 10 mg/kg), and Imipramine (30 mg/kg) were similarly administered as controls. […] Asterisks indicate highly statistical significant results.
A fourth inhibitor, (6) was administered p.o. as a racemic mixture of diastereomers at either 35 or 75 mg/kg. Sibutramine (5.0 and 3.75 mg/kg), Bupropion (30 and 40 mg/kg), and Imipramine (100 mg/kg) were similarly administered as controls.
Similarly, (1) was also administered p.o. as a racemic mixture of enriched (95:5) diastereomer at either 35 or 75 mg/kg. […]

SMILES: CC1CCN(CC2(c3ccc(Cl)cc3)CCC2)CC1COc1ccc(C(F)(F)F)cc1 (stereo not shown) [(1)]
- M1 (nM)h (M1 receptor): 5000 nM
- IC50 (DAT (SLC6A3)): 1 nM
- 7 day multidose oral toxicology, symptoms (Sprague-Dawley rats; Sprague-Dawley rats n = 6 (3M/3F), oral 100 mg/kg/day, 100 mg/kg/day): did not display any significant symptoms
- 7 day multidose oral toxicology, self-mutilation (number of animals) (Sprague-Dawley rats; n = 6, oral 200 mg/kg/day): 1 self-mutilation
- 7 day multidose oral toxicology, self-mutilation (number of animals) (Sprague-Dawley rats; n = 6, oral 400 mg/kg/day): 3 self-mutilation
- acute single dose toxicology, observed symptoms (rat; rat (n = 5), 200 mg/kg, i.v., observed 72 hours): decreased grip strength, and slight depression
- acute single dose toxicology, observed symptoms (rat; rat, doses below 120 mg/kg): no significant observed symptoms
- IC50 [1]: 175 nM
- forced swim test efficacy versus commercial drugs (FIG. 1) (rats; i.p., racemic mixtures of diastereomers): performed equally well, if not better, than the commercial drugs Sibutramine, Bupropion, and Imipramine
- forced swim test efficacy versus commercial drugs (FIG. 2, FIG. 3) (rats; p.o., 35 or 75 mg/kg): performed equally well, if not better, than the commercial drugs Sibutramine, Bupropion, and Imipramine
